Test [1] is described as follows: Trolox equivalent absorbance capacity (TEAC) assay. To be noted: trolox equivalents; sample stock 1 mg/mL; read at 734 nm after 30 min. As for the experimental part: The total antioxidant activity of the test sample was measured using previously described methods. The stock solutions which contained 7 mM ABTS and 140 mM potassium-peroxodisulphate (K2S2O8) (Merck, Johannesburg, South Africa) were prepared and kept at −2 °C. The working solution was then prepared by adding 88 μL K2S2O8 solution to 5 mL ABTS solution. The two solutions were thoroughly mixed and allowed to react for 24 h at room temperature in the dark. Trolox (6-hydrox-2,5,7,8-tetramethylchroman-2-carboxylic acid) was used as the standard with concentrations ranging between 0 and 500 μM. After 24 h, the ABTS mix solution was diluted with ethanol to read a start-up absorbance (control) of approximately 2.0 (±0.1). The stock solution (1 mg/mL) of a methanol extract (HT) and purified compounds (25 μL) were allowed to react with 300 μL ABTS in the dark at room temperature for 30 min. The absorbance was read at 734 nm at 25 °C on the plate reader. The results were expressed as μM trolox equivalents per milligram dry weight (μM TE/g) of the test samples.

The target in another test is T1, elastase (Sus scrofa, UniProt P00772).
T1 construct: purchased Sigma-Aldrich CAS No. 39445-21-1 (catalogue number not given); host or cells: porcine pancreas
Nature of the test: Elastase inhibition assay. The test is classed as biochemical, porcine. Here is the method: Inhibition of elastase by the test samples was assayed using N-succ-(Ala)3-nitroanilide (SANA) as the substrate, monitoring the release of p-nitroanilide by the method described with little adjustment. The inhibitory activity determined the intensity of color released during cleavage of SANA by the action of elastase. The working reagent for anti-elastase assay was prepared in line with the literature. […] The sample stock solutions were prepared as 1 mg in 1 mL methanol. […] The mixtures were further incubated for 10 min and the absorbance was measured at 410 nm. […] The sample control involved the sample and SANA (uninhibited sample). The percentage of elastase inhibition was calculated as follows: 1−B/A×100
Elastase inhibition (%), where A is the enzyme activity without sample and B is the activity in the presence of the sample.
(§1) The data presented are means ± SD obtained from 96-well plate readers for all in vitro experiments in triplicate. Differences between the means were considered to be significant if p < 0.05 according to Prism’s one-way ANOVA. The ORAC, FRAP, and TEAC values were determined using their respective templates. Correlation coefficients among the methods used for determining total antioxidant assays (FRAP, TEAC, and ORAC), as well as skin enzymes inhibitions (tyrosinase anf elastase), were determined using SPSS version 21. Values at p < 0.05 were considered significant.

Test [2] in a line: Automated ORAC assay, hydroxyl radical (H2O2-Cu2+). The note with it: trolox equivalents; H2O2-Cu2+-generated hydroxyl radical; fluorescein probe. Here is the method: (§2) ORAC was carried out according to the previous method with some modifications. […] The analyzer was programmed to record the fluorescence of fluorescein every 2 min after AAPH, or H2O2-Cu^2+ was added. The fluorescein solution and sample were added to the wells of an illuminated 96-well plate, and 12 µL of each of our samples (in stock solution of 1 mg/mL) was combined with 138 µL of a fluorescein working solution followed by the addition of 50 µL of 150 mg of AAPH prepared in situ in 6 mL phosphate buffer. Absorbance was measured using the Fluoroskan spectrum plate reader with the excitation wavelength set at 485 nm and the emission wavelength at 530 nm. A calibration curve was established using a trolox stock solution of concentrations in the range of 83–417 µM (R^2 = 0.9514). The ORAC values were calculated using a regression equation (Y = a + bX + cX^2) between trolox concentration (Y in µM) and the net area under the fluorescence decay curve (X). ORAC values were expressed as micromoles of trolox equivalents (TEs) per milligram of test sample. Samples without a perfect curve were further diluted and the dilution factors were used for the result calculations of such samples.

Test [3] in a line: Automated ORAC assay, peroxyl radical (AAPH). To be noted: for ORAC peroxyl radical: scaled × 10^3; for ORAC Peroxyl: trolox equivalents, AAPH-generated peroxyl radical, fluorescein probe. Here is the method:
as §2

Test [4] is described as follows: Ferric-ion-reducing antioxidant power (FRAP) assay. The note with it: ascorbic acid equivalents; sample stock 1 mg/mL; read at 593 nm after 30 min. As for the experimental part:
Working FRAP reagent was prepared in accordance with the method described previously. In a 96-well clear microplate (visible range), 10 μL of the stock solution (1 mg/mL, w/v) of the isolated compounds (C-1–C-7) and a methanol extract (HR) were mixed each with 300 μL FRAP reagent. The FRAP reagent was a mixture (10:1:1, v/v/v) of acetate buffer (300 mM, pH 3.6), tripyridyl triazine (TPTZ) (10 mM in 40 mM HCl), and FeCl3·6H2O (20 mM). After incubation at room temperature for 30 min, the plate was read at a wavelength of 593 nm on a Multiskan spectrum plate reader. L-Ascorbic acid was used as a standard with concentrations varying between 0 and 1000 μM. Further dilutions were carried out on the samples that were highly concentrated and such dilution factors were recorded and used for the calculations of the affected samples. The results were expressed as μM ascorbic acid equivalents per milligram dry weight (μM AAE/g) of the test samples.

Test [5] deals with Fe2+-induced lipid peroxidation in microsomes from an S9 liver fraction. Nature of the test: Inhibition of Fe(II)-induced microsomal lipid peroxidation (TBARS). The test is classed as biochemical. To be noted: TBARS at 532 nm, Table 2 head prints no unit, IC50 in µg/mL. As for the experimental part: A previously described method was used with a few modifications. The reaction mixture contained microsomes (1 mg of protein/mL in 0.01 M potassium phosphate buffer; pH 7.4, supplemented with 1.15% KCl, m/v) isolated from an S9 liver fraction using a sepharose column. The positive control included microsomes, buffer, and ferrous sulphate, in the absence of the samples to be tested.
The sample stock solutions (HR and C-1–C-7) were prepared in methanol (1 mg/mL, w/v). The working sample solutions were prepared in 0.01M potassium phosphate buffer, pH 7.4, supplemented with 1.15% KCl (m/v) diluted to 26.750, 13.375, 6.688, 3.344, 1.672, and 0.836 µg/mL concentrations. A total of 100 µL of each sample (working solutions) was dissolved in potassium phosphate buffer and pre-incubated with 500 µL microsomes at 37 °C for 30 min in a shaking water bath. A total of 200 µL of KCl buffer was added to the mixture, followed by 200 µL of a 2.5 mM ferrous sulphate solution and incubated at 37 °C for 1 h in a shaking water bath. The reaction was terminated with 10% trichloroacetic acid (TCA, m/v) solution (1 mL) containing 125 µL butylated hydroxytoluene (BHT, 0.01%) and 1 mM ethylenediaminetetraacetic acid (EDTA). Samples were centrifuged at 2000 rpm for 15 min; 1 mL of supernatant was mixed with 1 mL of 0.67% thiobarbituric acid (TBA) solution. The reaction mixture was then incubated in a water bath at 90 °C for 20 min and the absorbance was measured at 532 nm using Multiskan plate reader. EGCG, dissolved in methanol, was used as positive control. The percentage inhibition of TBARS formation relative to the positive control was calculated by Acontrol−Asample/Acontrol×100
as §1, with “All skin enzyme inhibitory assays and Fe^2+-induced lipid peroxidation assay calculations, expressed as percentage inhibitions ± SD, were performed using MS Excel 2013, while the final values, expressed as IC50, were determined using GraphPad prism 5.0. The data” for “The data”

[6] abbreviates: porcine pancreatic elastase, SANA substrate, 410 nm, Table 3 head prints no unit, threshold 100 µg/mL, read-out: ELA (elastase inhibition).

These results are taken from PMC10421400, “Methoxylated Flavonols and ent-Kaurane Diterpenes from the South African Helichrysum rutilans and Their Cosmetic Potential” (Plants, 2023).

“And” between values parts separate entries of the source, which are not always exact repeats. Identical values can stand only once. Like-named read-outs stand apart in the source and are kept apart here. Bounds are passed on as bounds.

T1 sequence (P00772 27-266): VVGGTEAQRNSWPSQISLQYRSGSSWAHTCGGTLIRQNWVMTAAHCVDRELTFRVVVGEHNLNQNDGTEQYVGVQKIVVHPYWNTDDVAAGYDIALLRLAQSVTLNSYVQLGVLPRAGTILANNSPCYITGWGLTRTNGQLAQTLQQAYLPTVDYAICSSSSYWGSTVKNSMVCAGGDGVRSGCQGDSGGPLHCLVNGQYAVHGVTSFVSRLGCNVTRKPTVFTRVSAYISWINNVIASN

In the case of `COc1cc2oc(-c3ccccc3)c(OC)c(=O)c2c(O)c1OC` [Compound C-4, 5-hydroxy-3,6,7-trimethoxyflavone], the TEAC in test [1] is recorded as 1207.11 ± 7.21 µM TE/g. Besides, the IC50 at elastase (setting [6]) is above 305 µM. Further, the “ORAC Hydroxyl” value in test [2] was 1.917 ± 3.91 × 10^6 µM TE/g. Besides, in test [3], the ORAC peroxyl radical is listed as 2.814 ± 5.20 × 10^3 µMTE/g and the “ORAC Peroxyl” value turned out to be 2814.51 ± 5.20 µM TE/g. For the same compound, the FRAP in test [4] is listed as 1119.44 ± 11.89 µM AAE/g. The “LPO (IC50, inhibition of Fe2+-induced lipid peroxidation)” value in test [5] is reported as 14.90 ± 0.06 µg/mL.
`COc1c(O)c(OC)c2oc(-c3ccccc3)c(OC)c(=O)c2c1O` [Compound C-2, 5,7-dihydroxy-3,6,8-trimethoxyflavone]: the TEAC in test [1] is on record as 1276.11 ± 1.32 µM TE/g. Besides, the IC50 on elastase (setting [6]) is above 290 µM. Moreover, in test [2], the “ORAC Hydroxyl” value is recorded as 2.413 ± 6.20 × 10^6 µM TE/g. Further, in test [3], the ORAC peroxyl radical was 2.935 ± 0.13 × 10^3 µMTE/g and the “ORAC Peroxyl” value turned out to be 2935.47 ± 0.13 µM TE/g. Moreover, the FRAP in test [4] turned out to be 1402.62 ± 5.77 µM AAE/g. The “LPO (IC50, inhibition of Fe2+-induced lipid peroxidation)” value in test [5] is 16.421 ± 0.92 µg/mL and 16.42 ± 0.92 µg/mL.
For the compound `O=c1cc(CO)occ1O` [KJA, kojic acid, reference compound], the IC50 at elastase is above 704 µM.
For the compound `O=C(O[C@@H]1Cc2c(O)cc(O)cc2O[C@@H]1c1cc(O)c(O)c(O)c1)c1cc(O)c(O)c(O)c1` [EGCG, Epigallocatechin gallate, reference compound], in test [1], the TEAC amounted to 11545.44 ± 17.28 µM TE/g. The “ORAC Hydroxyl” value in test [2] was 3.862 ± 4.65 × 10^6 µM TE/g. Moreover, in test [3], the “ORAC Peroxyl” value came to 14693.09 ± 5.53 µM TE/g. For the same compound, in test [4], the FRAP stood at 3326.45 ± 5.76 µM AAE/g. Besides, the “LPO (IC50, inhibition of Fe2+-induced lipid peroxidation)” value in test [5] is 0.929 ± 4.11 µg/mL.
With `COc1c(OC)c(O)c2c(=O)c(OC)c(-c3ccccc3)oc2c1OC` [Compound C-3, 5-hydroxy-3,6,7,8-tetramethoxyflavone], in test [1], the TEAC is reported as 1378.10 ± 9.06 µM TE/g. The IC50 on elastase (setting [6]) was above 279 µM. In test [3], the ORAC peroxyl radical is recorded as 2.431 ± 8.63 × 10^3 µMTE/g and the “ORAC Peroxyl” value worked out at 2431.30 ± 8.63 µM TE/g. The FRAP in test [4] was 1314.42 ± 2.42 µM AAE/g. Also, the “LPO (IC50, inhibition of Fe2+-induced lipid peroxidation)” value in test [5] worked out at 11.64 ± 1.72 µg/mL.
Turning to `C=C1C2CCC3C4(C)CCCC(C)(C(=O)O)C4CCC3(C2)C1O` (stereo not drawn) [Compound C-7, 15-α-hydroxy-(-)-ent-kaur-16-en-19-oic acid], in test [1], the TEAC was determined as 1424.51 ± 0.70 µM TE/g. Moreover, the IC50 on elastase (setting [6]) is above 314 µM. In addition, the “ORAC Hydroxyl” value in test [2] is on record as 0.845 ± 13.34 × 10^6 µM TE/g. Besides, the “ORAC Peroxyl” value in test [3] was 93.10 ± 13.68 µM TE/g. Also, the FRAP in test [4] was found to be 60.90 ± 7.90 µM AAE/g. Also, in test [5], the “LPO (IC50, inhibition of Fe2+-induced lipid peroxidation)” value is recorded as above 100 µg/mL.
Consider `C/C=C(\C)C(=O)Oc1c(O)c(OC)c(O)c2c(=O)c(OC)c(-c3ccccc3)oc12` [Compound C-1, 5,7,8-trihydroxy-3,6-dimethoxyflavone-8-O-2-methyl-2-butanoate], for which the TEAC in test [1] came to 1131.80 ± 6.41 µM TE/g. In addition, the IC50 at elastase (setting [6]) is above 242 µM. In addition, the “ORAC Hydroxyl” value in test [2] is listed as 2.114 ± 4.01 × 10^6 µM TE/g. Further, the “ORAC Peroxyl” value in test [3] is given as 3523.51 ± 3.22 µM TE/g. Moreover, the FRAP in test [4] was found to be 1251.45 ± 4.18 µM AAE/g. The “LPO (IC50, inhibition of Fe2+-induced lipid peroxidation)” value in test [5] amounted to 13.123 ± 0.34 µg/mL.
Turning to `C=C1CC23CCC4C(C)(C(=O)O)CCCC4(C)C2CCC1C3` (stereo not drawn) [Compound C-5, ent-kaurenoic acid], the TEAC in test [1] was found to be 1105.00 ± 3.09 µM TE/g. In addition, the IC50 at elastase (setting [6]) is above 331 µM. In addition, in test [2], the “ORAC Hydroxyl” value is recorded as 0.429 ± 12.00 × 10^6 µM TE/g. The “ORAC Peroxyl” value in test [3] was 364.44 ± 6.71 µM TE/g. Further, in test [4], the FRAP is 19.66 ± 8.12 µM AAE/g. In test [5], the “LPO (IC50, inhibition of Fe2+-induced lipid peroxidation)” value is given as above 100 µg/mL.
